PubChem BioAssay (NCI)
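GI50 = concentration required for 50% inhibition of growth. TGI denotes the concentration required for complete inhibition of growth.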

Key:
Assay in all cases: inhibition of tumour cell growth, NCI panel, 384-well format
[1] = test system: 786-0 renal
[2] = test system: A498 renal
[3] = test system: A549 NSCLC
[4] = test system: ACHN renal
[5] = test system: BT-549 breast
[6] = test system: CAKI-1 renal
[7] = test system: CCRF-CEM leukemia
[8] = test system: COLO 205 colon
[9] = test system: DU-145 prostate
[10] = test system: EKVX NSCLC
[11] = test system: HCC-2998 colon
[12] = test system: HCT-116 colon
[13] = test system: HCT-15 colon
[14] = test system: HL-60(TB) leukemia
[15] = test system: HOP-62 NSCLC
[16] = test system: HOP-92 NSCLC
[17] = test system: HS 578T breast
[18] = test system: HT29 colon
[19] = test system: IGROV1 ovarian
[20] = test system: K-562 leukemia
[21] = test system: KM12 colon
[22] = test system: LOX IMVI melanoma
[23] = test system: M14 melanoma
[24] = test system: MALME-3M melanoma
[25] = test system: MCF7 breast
[26] = test system: MDA-MB-231 breast
[27] = test system: MDA-MB-435 melanoma
[28] = test system: MDA-MB-468 breast
[29] = test system: MOLT-4 leukemia
[30] = test system: NCI-H226 lung
[31] = test system: NCI-H23 lung
[32] = test system: NCI-H322M lung
[33] = test system: NCI-H460 NSCLC
[34] = test system: NCI-H522 lung
[35] = test system: NCI/ADR-RES ovarian
[36] = test system: OVCAR-3 ovarian
[37] = test system: OVCAR-4 ovarian
[38] = test system: OVCAR-5 ovarian
[39] = test system: OVCAR-8 ovarian
[40] = test system: PC-3 prostate
[41] = test system: RPMI-8226 leukemia
[42] = test system: RXF 393 renal
[43] = test system: SF-268 CNS
[44] = test system: SF-295 CNS
[45] = test system: SF-539 CNS
[46] = test system: SK-MEL-2 melanoma
[47] = test system: SK-MEL-28 melanoma
[48] = test system: SK-MEL-5 melanoma
[49] = test system: SK-OV-3 ovarian
[50] = test system: SN12C renal
[51] = test system: SNB-19 CNS
[52] = test system: SNB-75 CNS
[53] = test system: SW-620 colon
[54] = test system: T-47D breast
[55] = test system: TK-10 renal
[56] = test system: U251 glioblastoma
[57] = test system: UACC-62 melanoma
[58] = test system: UO-31 renal

Cn1nccc1Nc1nccc(-c2cc3c(s2)C(C)(C)N(CCN2CCOCC2)C3=O)n1
GI50 [1]: 90.9 µM | TGI [1]: > 100 µM | GI50 [2]: 5.15 µM | TGI [2]: > 100 µM | GI50 [3]: 2.45 µM | TGI [3]: > 100 µM | GI50 [4]: 16.9 µM | TGI [4]: > 100 µM | GI50 [5]: 13.8 µM | TGI [5]: > 100 µM | GI50 [6]: 3.31 µM | TGI [6]: > 100 µM | GI50 [7]: 34.2 µM | TGI [7]: > 100 µM | GI50 [8]: 0.194 µM | TGI [8]: 5.35 µM | GI50 [9]: 23.6 µM | TGI [9]: > 100 µM | GI50 [10]: > 100 µM | TGI [10]: > 100 µM | GI50 [11]: 0.308 µM | TGI [11]: 17.1 µM | GI50 [12]: 0.404 µM | TGI [12]: > 100 µM | GI50 [13]: 23.1 µM | TGI [13]: > 100 µM | GI50 [14]: 0.264 µM | TGI [14]: 10.1 µM | GI50 [15]: 8.17 µM | TGI [15]: > 100 µM | GI50 [16]: 4.27 µM | TGI [16]: > 100 µM | GI50 [17]: 49.4 µM | TGI [17]: > 100 µM | GI50 [18]: 0.618 µM | TGI [18]: > 100 µM | GI50 [19]: 3.52 µM | TGI [19]: > 100 µM | GI50 [20]: 4.74 µM | TGI [20]: > 100 µM | GI50 [21]: 1.69 µM | TGI [21]: > 100 µM | GI50 [22]: 0.345 µM | TGI [22]: 1.55 µM | GI50 [23]: 0.157 µM | TGI [23]: 0.905 µM | GI50 [24]: 0.0557 µM | TGI [24]: 0.296 µM | GI50 [25]: 21.2 µM | TGI [25]: > 100 µM | GI50 [26]: 3.5 µM | TGI [26]: > 100 µM | GI50 [27]: 0.402 µM | TGI [27]: 50.9 µM | GI50 [28]: 19.3 µM | TGI [28]: 89 µM | GI50 [29]: 46 µM | TGI [29]: > 100 µM | GI50 [30]: 14.2 µM | TGI [30]: > 100 µM | GI50 [31]: 0.301 µM | TGI [31]: 9.1 µM | GI50 [32]: 7.59 µM | TGI [32]: > 100 µM | GI50 [33]: 4.26 µM | TGI [33]: > 100 µM | GI50 [34]: 1.65 µM | TGI [34]: 20.8 µM | GI50 [35]: > 100 µM | TGI [35]: > 100 µM | GI50 [36]: 51.4 µM | TGI [36]: > 100 µM | GI50 [37]: > 100 µM | TGI [37]: > 100 µM | GI50 [38]: 0.989 µM | TGI [38]: > 100 µM | GI50 [39]: 34.8 µM | TGI [39]: > 100 µM | GI50 [40]: 55.4 µM | TGI [40]: > 100 µM | GI50 [41]: 2.23 µM | TGI [41]: 8.87 µM | GI50 [42]: > 100 µM | TGI [42]: > 100 µM | GI50 [43]: 50.9 µM | TGI [43]: > 100 µM | GI50 [44]: > 100 µM | TGI [44]: > 100 µM | GI50 [45]: 28.2 µM | TGI [45]: > 100 µM | GI50 [46]: 0.372 µM | TGI [46]: 1.45 µM | GI50 [47]: 0.177 µM | TGI [47]: 0.797 µM | GI50 [48]: 0.619 µM | TGI [48]: > 100 µM | GI50 [49]: 25.2 µM | TGI [49]: > 100 µM | GI50 [50]: 39.2 µM | TGI [50]: > 100 µM | GI50 [51]: 64.7 µM | TGI [51]: > 100 µM | GI50 [52]: > 100 µM | TGI [52]: > 100 µM | GI50 [53]: 0.756 µM | TGI [53]: > 100 µM | GI50 [54]: > 100 µM | TGI [54]: > 100 µM | GI50 [55]: 3.46 µM | TGI [55]: > 100 µM | GI50 [56]: 25.9 µM | TGI [56]: > 100 µM | GI50 [57]: 0.138 µM | TGI [57]: 1.76 µM | GI50 [58]: 9.2 µM | TGI [58]: > 100 µM
